Results on two molecules are retold here after ChEMBL document CHEMBL1158065, “Prenylated phenolics from Ganoderma fornicatum” (J Nat Prod, 2006).

In brackets after ≈: the same amount, converted by molar mass.

The subject of the test is HEp-2. The test can be described thus: Cytotoxicity against human Hep2 cells by MTT method. The format is functional, cell-based. (Tetrazolium dyes change colour on reduction, which living cells bring about.)

Broadly, the IC50 is the concentration that inhibits the measured activity by half. Higher therefore signals a need for much substance. For `COC1(c2cc(O)ccc2O)C=C(CC/C=C(\C)CCC=C(C)C)C(=O)O1` (configuration not stated) [FORNICIN B], half-maximal inhibition (IC50) was put at 15 µg/mL (≈ 40.3 µM).

Regarding `CC(C)=CCC/C(C)=C/CCC(CC(=O)c1cc(O)ccc1O)C(=O)O` (configuration not stated) [FORNICIN C], the half-maximal inhibitory concentration (IC50) came out at 23 µg/mL (≈ 63.8 µM).
